In patent publication USRE30633E, “3-Lower alkylcarbamylsulfonamido-4-phenylaminopyridines, n-oxides, derivatives thereof and pharmaceutical compositions containing same” (A. Christiaens Societe Anonyme, priority 1974, dated 1981):

Tests used:
rats = test: Pharmacological test for diuretic properties (urine volume); format: in vivo; details: 50 mg/kg gastric gavage, 25 ml/kg saline s.c., urine collected 4 hours, ml/kg of body weight
Description: 2. Pharmacological tests for diuretic properties Lots of 3 rats weighting 250-300 g have been constituted at random, each of them being submitted to the same treatment. The compound to be tested was administered by .[.gastric gavage at a dose of 50 ml/kg as a solution or a.]. .Iadd.gastric gavage at a dose of 50 mg/kg as a solution or a .[…].suspension in water containing 0.45% of methylcellulose (which is an inert mucilaginous substance). Control animals received only distilled water as a placebo. At the same time, all the animals received 25 ml/kg of physiological saline by subcutaneous injection. The rats were then placed in metabolic cages, each cage containing 3 animals receiving the same treatment. The urines have been collected during 4 hours. […] The diuresis is expressed in ml/kg of body weight.

paw of rats = test: Pharmacological test for anti-inflammatory properties (carrageenan rat paw swelling); format: in vivo; details: oral 1 hour before carrageenan (0.05 ml of 1%), swelling 4 hours after injection by plethysmography, dose not given
Description: 1. Pharmacological test for anti-inflammatory properties.
The compounds to be tested are given as freshly prepared solutions or suspensions by oral route 1 hour before injecting the paw of rats with carrageenan which is a known inflammatory agent.
The inflammatory agent (carrageenan) either in solution or suspension is then injected into the plantar tissue of the right hind paw of each rat, the left paw remaining untreated and serving as control. Each animal receives, for example, 0.05 ml of an aqueous solution containing 1% by weight of carrageenan and 0.9% of sodium chloride.
4 hours after the injection of the inflammatory agent, the importance of swelling is determined by plethysmography and is expressed as a percent of the volume of the control paw.
The anti-inflammatory effect expressed as a percentage of inhibition is obtained by comparison between rats treated with the anti-inflammatory compound and a control group of rats.

`CC(C)NC(=O)NS(=O)(=O)c1cnccc1NCc1ccco1` [JDL 472, 3-isopropylcarbamylsulfonamido-4-methylfurylaminopyridine] was tested, and the Diuresis (rats) was 69.6 mL/kg and the “% inhibition of acute oedema” value (paw of rats) was 54.4%.

`CC(=O)NS(=O)(=O)c1cnccc1Sc1cccc(Cl)c1` [JDL 362, 3-acetylsulfonamido-4-(3-chloro)-thiophenoxy-pyridine] was tested, and the Diuresis (rats) was 8.1 mL/kg and the “% inhibition of acute oedema” value (paw of rats) was 37.6%.

`CCCCNC(=O)NS(=O)(=O)c1cnccc1NC(C)C` [JDL 491, 3-butylcarbamylsulfonamido-4-isopropylaminopyridine] was tested, and the Diuresis (rats) was 25.1 mL/kg and the “% inhibition of acute oedema” value (paw of rats) was 88.0%.

For `CNC(=O)NS(=O)(=O)c1cnccc1Nc1cccc(Br)c1` [JDL 496, 3-methylcarbamylsulfonamido-4-(3'-bromo)-phenylaminopyridine], the Diuresis (rats) was 72.1 mL/kg and the “% inhibition of acute oedema” value (paw of rats) was 70.4%.

With `CCNC(=O)NS(=O)(=O)c1cnccc1Nc1ccc(Cl)c(Cl)c1` [JDL 475, 3-ethylcarbamylsulfonamido-4-(3',4'-dichloro)-phenylaminopyridine] the Diuresis (rats) was 34.3 mL/kg and the “% inhibition of acute oedema” value (paw of rats) was 79.2%.

With `CC(C)NC(=O)NS(=O)(=O)c1cnccc1Nc1ccc(Cl)cc1` [JDL 423, 3-isopropylcarbamylsulfonamido-4-(4'-chloro)-phenylaminopyridine] the Diuresis (rats) was 68.7 mL/kg and the “% inhibition of acute oedema” value (paw of rats) was 64.0%.

With `C=CCNC(=S)NS(=O)(=O)c1cnccc1Nc1cccc(Cl)c1` [JDL 480, 3-allyl-thiocarbamyl-sulfonamido-4-(3'-chloro)-phenylaminopyridine] the Diuresis (rats) was 26.4 mL/kg and the “% inhibition of acute oedema” value (paw of rats) was 65.6%.

In the case of `O=C(NC1CCCCC1)NS(=O)(=O)c1cnccc1Nc1ccccc1Cl` [JDL 428, 3-cyclohexylcarbamylsulfonamido-4-(2'-chloro)-phenylamionpyridine], the Diuresis (rats) is reported as 15.6 mL/kg and the “% inhibition of acute oedema” value (paw of rats) is reported as 17.6%.

For `CC(C)NC(=O)NS(=O)(=O)c1cnccc1Nc1cccc(F)c1` [JDL 466, 3-isopropylcarbamylsulfonamido-4-(3'-fluoro)-phenylaminopyridine], the Diuresis (rats) was 70.7 mL/kg and the “% inhibition of acute oedema” value (paw of rats) was 68.0%.

For `CNC(=O)NS(=O)(=O)c1cnccc1Nc1cccc(Cl)c1` [JDL 379, 3-methylcarbamylsulfonamido-4-(3'-chloro)-phenylaminopyridine], the Diuresis (rats) was 76.5 mL/kg and the “% inhibition of acute oedema” value (paw of rats) was 63.2%.

With `O=C(NC1CCCCC1)NS(=O)(=O)c1cnccc1Nc1cccc(C(F)(F)F)c1` [JDL 364, 3-cyclohexylcarbamylsulfonamido-4-(3'-trifluoromethyl)-phenylaminopyridine] the Diuresis (rats) was 37.7 mL/kg and the “% inhibition of acute oedema” value (paw of rats) was 58.4%.

`O=C(Nc1ccccc1)NS(=O)(=O)c1cnccc1Nc1cccc(Cl)c1` [JDL 390, 3-phenylcarbamylsulfonamido-4-(3'-chloro)-phenylaminopyridine] was tested, and the Diuresis (rats) was 16.9 mL/kg and the “% inhibition of acute oedema” value (paw of rats) was 47.2%.

For `CCNC(=O)NS(=O)(=O)c1cnccc1Nc1ccc(Cl)cc1` [JDL 416, 3-ethylcarbamylsulfonamido-4-(4'-chloro)-phenylaminopyridine], the Diuresis (rats) was 52.8 mL/kg and the “% inhibition of acute oedema” value (paw of rats) was 85.6%.

For `CNC(=O)NS(=O)(=O)c1cnccc1Nc1ccccc1Cl` [JDL 402, 3-methylcarbamylsulfonamidio-4-(2'-chloro)-phenylaminopyridine], the Diuresis (rats) was 65.4 mL/kg and the “% inhibition of acute oedema” value (paw of rats) was 76.8%.

In the case of `CCCCNC(=O)NS(=O)(=O)c1cnccc1Nc1cccc(Cl)c1` [JDL 344, 3-butylcarbamylsulfonamido-4-(3'-chloro)-phenylaminopyridine], the Diuresis (rats) is reported as 66.9 mL/kg and the “% inhibition of acute oedema” value (paw of rats) is reported as 82.4%.

In the case of `CC(C)NC(=O)NS(=O)(=O)c1cnccc1Nc1cccc(C(F)(F)F)c1` [JDL 414, 3-isopropylcarbamylsulfonamido-4-(3'-trifluoromethyl)-phenylaminopyridine], the Diuresis (rats) is reported as 82.9 mL/kg and the “% inhibition of acute oedema” value (paw of rats) is reported as 75.2%.

In the case of `CCCNC(=O)NS(=O)(=O)c1cnccc1Nc1cccc(Cl)c1` [JDL 375, 3-propylcarbamylsulfonamido-4-(3'-chloro)-phenylaminopyridine], the Diuresis (rats) is reported as 80.5 mL/kg and the “% inhibition of acute oedema” value (paw of rats) is reported as 46.4%.

In the case of `CCCCNC(=O)NS(=O)(=O)c1cnccc1Nc1ccc(Cl)c(C(F)(F)F)c1` [JDL 486, 3-butylcarbamylsulfonamido-4-(3'-trifluoromethyl-4'-chloro)-phenyl aminopyridine], the Diuresis (rats) is reported as 3.6 mL/kg and the “% inhibition of acute oedema” value (paw of rats) is reported as 16.8%.

In the case of `CCNC(=O)NS(=O)(=O)c1cnccc1Nc1cccc(Cl)c1` [JDL 387], the Diuresis (rats) is reported as 80.9 mL/kg and the “% inhibition of acute oedema” value (paw of rats) is reported as 76.8%.

In the case of `CCNC(=O)NS(=O)(=O)c1cnccc1Nc1cccc(Br)c1` [JDL 467, 3-ethylcarbamylsulfonamido-4-(3'-bromo)-phenylaminopyridine], the Diuresis (rats) is reported as 65.8 mL/kg and the “% inhibition of acute oedema” value (paw of rats) is reported as 69.6%.

With `CC(C)NC(=O)NS(=O)(=O)c1cnccc1Nc1cccc(Cl)c1` [JDL 413, 3-isopropylcarbamylsulfonamido-4-(3'-chloro)-phenylaminopyridine] the Diuresis (rats) was 92.5 mL/kg and the “% inhibition of acute oedema” value (paw of rats) was 76.8%.

`CNC(=O)NS(=O)(=O)c1cnccc1Nc1cccc(F)c1` [JDL 495, 3-methylcarbamylsulfonamido-4-(3'-fluoro)-phenylaminopyridine] was tested, and the Diuresis (rats) was 76.3 mL/kg and the “% inhibition of acute oedema” value (paw of rats) was 66.2%.

For `CNC(=S)NS(=O)(=O)c1cnccc1Nc1cccc(Cl)c1` [JDL 477, 3-methylthiocarbamylsulfonamido-4-(3'-chloro)-phenylaminopyridine], the Diuresis (rats) was 43.6 mL/kg and the “% inhibition of acute oedema” value (paw of rats) was 61.6%.

With `O=C(NS(=O)(=O)c1cnccc1Nc1cccc(C(F)(F)F)c1)c1ccccc1` [C 2129, 3-benzoylsulfonamido-4-(3'-trifluoromethyl)-phenylaminopyridine] the Diuresis (rats) was 30.3 mL/kg and the “% inhibition of acute oedema” value (paw of rats) was 23.2%.

With `CCNC(=O)NS(=O)(=O)c1cnccc1Nc1ccc(Cl)c(C(F)(F)F)c1` [JDL 488, 3-ethylcarbamylsulfonamido-4-(3'-trifluoromethyl-4'-chloro)-phenyl-aminopyridine] the Diuresis (rats) was 16.4 mL/kg and the “% inhibition of acute oedema” value (paw of rats) was 24.8%.

In the case of `O=C(Nc1ccc(Cl)cc1)NS(=O)(=O)c1cnccc1Nc1cccc(Cl)c1` [JDL 391, 3-parachlorophenylcarbamylsulfonamido-4-(3'-chloro)-phenylaminopyridine], the Diuresis (rats) is reported as 9.6 mL/kg and the “% inhibition of acute oedema” value (paw of rats) is reported as 74.4%.

For `COc1cccc(Nc2ccncc2S(=O)(=O)NC(=O)NC(C)C)c1` [JDL 470, 3-isopropylcarbamylsulfonamido-4-(3'-methoxy)-phenylaminopyridine], the Diuresis (rats) was 74.9 mL/kg and the “% inhibition of acute oedema” value (paw of rats) was 83.2%.

`O=C(Nc1ccc(Cl)cc1)NS(=O)(=O)c1cnccc1Nc1cccc(C(F)(F)F)c1` [JDL 357, 3-parachlorophenylcarbamylsulfonamido-4-(3'-trifluoromethyl)-phenylaminopyridine] was tested, and the Diuresis (rats) was 11.2 mL/kg and the “% inhibition of acute oedema” value (paw of rats) was 52.0%.

`CNC(=O)NS(=O)(=O)c1cnccc1Nc1cccc(C)c1` [JDL 494, 3-methylcarbamylsulfonamido-4-(3'-methyl)-phenylaminopyridine] was tested, and the Diuresis (rats) was 75.9 mL/kg and the “% inhibition of acute oedema” value (paw of rats) was 85.6%.

`CCC(=O)NS(=O)(=O)c1cnccc1N(C)c1ccccc1` [JDL 358, 3-propionylsulfonamido-4-(N-methylanilino)-pyridine] was tested, and the Diuresis (rats) was 17.9 mL/kg and the “% inhibition of acute oedema” value (paw of rats) was 57.3%.

`CCNC(=O)NS(=O)(=O)c1cnccc1Nc1cccc(C)c1` [JDL 463, 3-ethylcarbamylsulfonamido-4-(3'-methyl)-phenylaminopyridine] was tested, and the Diuresis (rats) was 76.1 mL/kg and the “% inhibition of acute oedema” value (paw of rats) was 73.6%.

In the case of `CNC(=O)NS(=O)(=O)c1cnccc1Nc1cccnc1` [JDL 506, 3-methylcarbamylsulfonamido-4-(3'-pyridylamino)-pyridine], the Diuresis (rats) is reported as 13.5 mL/kg.

With `CCNC(=S)NS(=O)(=O)c1cnccc1Nc1cccc(C(F)(F)F)c1` [JDL 420, 3-ethylthiocarbamylsulfonamido-4-(3'trifluoromethyl)-phenylaminopyridine] the Diuresis (rats) was 65.0 mL/kg and the “% inhibition of acute oedema” value (paw of rats) was 52.8%.

For `NS(=O)(=O)c1cnccc1Sc1cccc(Cl)c1` [JDL 361, 3-sulfonamido-4-(3'-chloro)-thiophenoxypyridine], the Diuresis (rats) was 9.6 mL/kg and the “% inhibition of acute oedema” value (paw of rats) was 56.8%.

`CC(C)NC(=O)NS(=O)(=O)c1cnccc1Nc1cccc([N+](=O)[O-])c1` [JDL 505, 3-isopropylcarbamylsulfonamido-4-(3'-nitro)-phenylaminopyridine] was tested, and the Diuresis (rats) was 56.3 mL/kg and the “% inhibition of acute oedema” value (paw of rats) was 68.0%.

With `CNC(=O)NS(=O)(=O)c1cnccc1Nc1ccc(Cl)cc1` [JDL 415, 3-methylcarbamylsulfonamido-4-(4'-chloro)-phenylaminopyridine] the Diuresis (rats) was 47.0 mL/kg and the “% inhibition of acute oedema” value (paw of rats) was 75.2%.

`CC(C)NC(=O)NS(=O)(=O)c1cnccc1Nc1cc(Cl)cc(Cl)c1` [JDL 474, 3-isopropylcarbamylsulfonamido-4-(3',5'-dichloro)-phenylaminopyridine] gave a Diuresis (rats) of 33.3 mL/kg.
